From ChEMBL document CHEMBL1201862, “PubChem BioAssay data set” (2004)
Each block holds one molecule with its values, some of them ahead of it. The source made the active and inactive calls. Cut-off read from the data, not from the text of the source, for most assays here: active = IC50 of 10 µM or less and inactive = more.

Key:
Steroidogenic factor 1 = Steroidogenic factor 1 (Homo sapiens, UniProt Q13285); assay: Counterscreen for inverse agonists of the liver receptor homolog-1 (LRH-1; NR5A2): Luminescence-based cell-based high throughput dose response assay to identify inverse agonists of the Steroidogenic Factor 1 Nuclear Receptor (SF1; NR5A1).; assay type: functional
[1] = nonselective StAR promoter luciferase inhibitors – cell-based, luminescence, luciferase reporter, counter-screen for LRH-1 inverse agonist project, dose response (AID 651969); assay type: functional
[2] = target: Nuclear receptor subfamily 5 group A member 2 (Homo sapiens, UniProt O00482); assay type: functional, cell-based;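 note: HEK293T cells transfected with LRH-1 and a StAR promoter luciferase reporter; potency for inhibitors that lower LRH-1 driven reporter light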
[3] = target: T1, Orexin/Hypocretin receptor type 1 (Homo sapiens, UniProt O43613); assay: Homogeneous Time Resolved Fluorescence (HTRF)-based cell-based high throughput dose response assay for antagonists of the orexin 1 receptor (OX1R; HCRTR1). [Related pubchem assays (depositor defined):AID434989, AID435008, AID463079, AID485270, AID492963, AID492964, AID492965, AID493232, AID504717, AID504718]; assay type: functional
T1 sequence (O43613 whole entry): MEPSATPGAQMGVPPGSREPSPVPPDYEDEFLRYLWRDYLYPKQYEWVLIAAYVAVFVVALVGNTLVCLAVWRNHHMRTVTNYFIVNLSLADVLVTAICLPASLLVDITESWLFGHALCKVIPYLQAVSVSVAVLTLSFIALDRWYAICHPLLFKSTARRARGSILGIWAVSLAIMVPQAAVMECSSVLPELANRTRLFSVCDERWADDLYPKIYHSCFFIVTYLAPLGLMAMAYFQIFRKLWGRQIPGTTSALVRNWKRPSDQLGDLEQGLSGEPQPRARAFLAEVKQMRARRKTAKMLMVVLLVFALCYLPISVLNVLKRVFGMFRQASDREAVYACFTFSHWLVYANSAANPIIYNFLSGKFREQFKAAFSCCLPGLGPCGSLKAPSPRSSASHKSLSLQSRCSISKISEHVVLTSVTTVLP

Orexin receptor type 2 [4] = target: T2, Orexin receptor type 2 (Homo sapiens, UniProt O43614); assay: Counterscreen assay for antagonists of the orexin 1 receptor (OX1R; HCRTR1): Homogeneous Time Resolved Fluorescence (HTRF)-based cell-based dose response assay for antagonists of the orexin 2 receptor (OX2R; HCRTR2), run by assay provider.; assay type: functional
T2 sequence (O43614 whole entry): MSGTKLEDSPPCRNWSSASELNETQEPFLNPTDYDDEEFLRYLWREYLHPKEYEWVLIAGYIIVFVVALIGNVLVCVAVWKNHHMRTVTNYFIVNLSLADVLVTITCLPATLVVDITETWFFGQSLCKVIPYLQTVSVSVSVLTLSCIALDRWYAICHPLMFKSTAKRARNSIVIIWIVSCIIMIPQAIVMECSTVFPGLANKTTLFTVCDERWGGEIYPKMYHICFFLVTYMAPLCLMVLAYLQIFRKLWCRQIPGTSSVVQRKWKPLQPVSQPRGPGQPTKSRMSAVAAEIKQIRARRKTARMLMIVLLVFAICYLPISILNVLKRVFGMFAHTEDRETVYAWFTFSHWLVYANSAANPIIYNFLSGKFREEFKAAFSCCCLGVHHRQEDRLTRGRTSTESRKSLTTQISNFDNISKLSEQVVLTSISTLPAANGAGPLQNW

[5] = (§1) Counterscreen for antagonists of the orexin 1 receptor (OX1R; HCRTR1): Fluorescence-based cell-based high throughput dose response assay to identify antagonists of the parental CHO cell line. [Related pubchem assays (depositor defined):AID434989, AID435008, AID463079, AID485270, AID492963, AID492964, AID492965, AID493232, AID504699, AID504701]; assay type: functional
[6] = target: T1, Orexin/Hypocretin receptor type 1; assay: Fluorescence-based cell-based high throughput dose response assay for antagonists of the orexin 1 receptor (OX1R; HCRTR1). [Related pubchem assays (depositor defined):AID434989, AID435008, AID463079, AID485270, AID492963, AID492964, AID492965, AID493232, AID504717, AID504718]; assay type: functional
CHO-K1 = assay: as §1, with “Homogeneous time resolved fluorescence (HTRF)-based” for “Fluorescence-based”, “cell-based” for “cell-based high throughput”, “CHO-K1” for “CHO”; assay type: functional; settings: Cricetulus griseus;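 note: potency for inhibition of ATP-stimulated IP1 production as antagonists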
Orexin receptor type 2 [7] = target: T2, Orexin receptor type 2; assay: Counterscreen assay for antagonists of the orexin 1 receptor (OX1R; HCRTR1): Fluorescence-based cell-based dose response assay for antagonists of the orexin 2 receptor (OX2R; HCRTR2), run by assay provider.; assay type: functional
[8] = target: ADP-ribosylation factor GTPase-activating protein 1 (Rattus norvegicus, UniProt Q62848); assay: Fluorescence polarization-based biochemical high throughput dose response screening assay to identify inhibitors of ADP-ribosylation factor GTPase activating protein 1 (ARFGAP1).; assay type: functional
[9] = target: Ras and Rab interactor 1/Tyrosine-protein kinase ABL1 (Homo sapiens, UniProt P00519+Q13671); assay type: functional;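 note: biochemical TR-FRET dose-response test measuring inhibition of binding between Rin1 and Abl proteins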
[10] = target: Hepatocyte nuclear factor 4-alpha (Homo sapiens, UniProt P41235); assay type: functional, cell-based;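 note: biochemical luminescence-based dose-response counterscreen measuring inhibition of HNF4 dimerization, run alongside a screen for blockers of ABHD5–perilipin-5 interaction; split luciferase complementation of HNF4 fusion proteins in cell lysate measuring dimerization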
[11] = NIH3T3 cell viability loss – ATP luminescence, mouse fibroblasts, counter-screen, dose response (AID 2010); assay type: functional, cell-based;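 note: cells exposed to compound for about 90 hours before reading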
[12] = target: Low molecular weight phosphotyrosine protein phosphatase (Homo sapiens, UniProt P24666); assay type: functional; settings: read-out: IC50_Mean;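 note: Dose-response confirmation assay measuring inhibition of LMPTP enzyme activity by fluorescence intensity read-out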
[13] = Trypanosoma cruzi growth suppression in host cells – NIH3T3 host cells, beta-gal luminescence, confirmation (AID 2044); assay type: functional, cell-based;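 note: intracellular parasites grown in NIH/3T3 mouse fibroblasts as host cells; luminescent beta-galactosidase reporter signal from transgenic T. cruzi replicating inside host cells; inhibitors lower the luminescence signal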
[14] = target: Mitochondrial peptide methionine sulfoxide reductase (Bos taurus, UniProt P54149); assay type: functional;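 note: absorbance read-out, biochemical high-throughput dose-response screen for MsrA inhibitors, confirmatory; recombinant bovine MsrA coupled to E. coli TrxB with NADPH and selenocystamine; potency is for inhibitors of MsrA activity on DMSO substrate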
[15] = target: T3, Heat shock factor protein 1 (Mus musculus, UniProt P38532); assay: decrease of HSF1-responsive luciferase luminescence – cell-based, NIH3T3, dose retest, confirmation (AID 2382); assay type: functional;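 note: NIH3T3 fibroblasts with HSF1-driven luciferase reporter stressed by proteasome inhibitor MG132; luminescence from HSF1-driven luciferase expression after 8 hours of MG132 stress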
T3 sequence (P38532 whole entry): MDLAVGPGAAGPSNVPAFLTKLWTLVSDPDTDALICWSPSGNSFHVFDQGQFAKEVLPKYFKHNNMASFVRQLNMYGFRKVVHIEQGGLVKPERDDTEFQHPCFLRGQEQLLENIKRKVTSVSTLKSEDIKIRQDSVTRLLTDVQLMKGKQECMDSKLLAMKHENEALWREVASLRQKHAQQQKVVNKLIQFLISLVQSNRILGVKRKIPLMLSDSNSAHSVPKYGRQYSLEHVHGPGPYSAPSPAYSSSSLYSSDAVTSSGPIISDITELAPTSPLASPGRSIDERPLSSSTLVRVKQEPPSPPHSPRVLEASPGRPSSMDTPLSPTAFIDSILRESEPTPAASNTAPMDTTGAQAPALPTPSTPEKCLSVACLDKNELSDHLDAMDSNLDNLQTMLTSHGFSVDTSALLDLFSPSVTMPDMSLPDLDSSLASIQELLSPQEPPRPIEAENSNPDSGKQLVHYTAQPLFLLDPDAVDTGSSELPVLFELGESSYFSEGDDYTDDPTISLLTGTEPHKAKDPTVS

Ras and Rab interactor 1/Tyrosine-protein kinase ABL1, sequence (P00519 whole entry, the tested form may be a part): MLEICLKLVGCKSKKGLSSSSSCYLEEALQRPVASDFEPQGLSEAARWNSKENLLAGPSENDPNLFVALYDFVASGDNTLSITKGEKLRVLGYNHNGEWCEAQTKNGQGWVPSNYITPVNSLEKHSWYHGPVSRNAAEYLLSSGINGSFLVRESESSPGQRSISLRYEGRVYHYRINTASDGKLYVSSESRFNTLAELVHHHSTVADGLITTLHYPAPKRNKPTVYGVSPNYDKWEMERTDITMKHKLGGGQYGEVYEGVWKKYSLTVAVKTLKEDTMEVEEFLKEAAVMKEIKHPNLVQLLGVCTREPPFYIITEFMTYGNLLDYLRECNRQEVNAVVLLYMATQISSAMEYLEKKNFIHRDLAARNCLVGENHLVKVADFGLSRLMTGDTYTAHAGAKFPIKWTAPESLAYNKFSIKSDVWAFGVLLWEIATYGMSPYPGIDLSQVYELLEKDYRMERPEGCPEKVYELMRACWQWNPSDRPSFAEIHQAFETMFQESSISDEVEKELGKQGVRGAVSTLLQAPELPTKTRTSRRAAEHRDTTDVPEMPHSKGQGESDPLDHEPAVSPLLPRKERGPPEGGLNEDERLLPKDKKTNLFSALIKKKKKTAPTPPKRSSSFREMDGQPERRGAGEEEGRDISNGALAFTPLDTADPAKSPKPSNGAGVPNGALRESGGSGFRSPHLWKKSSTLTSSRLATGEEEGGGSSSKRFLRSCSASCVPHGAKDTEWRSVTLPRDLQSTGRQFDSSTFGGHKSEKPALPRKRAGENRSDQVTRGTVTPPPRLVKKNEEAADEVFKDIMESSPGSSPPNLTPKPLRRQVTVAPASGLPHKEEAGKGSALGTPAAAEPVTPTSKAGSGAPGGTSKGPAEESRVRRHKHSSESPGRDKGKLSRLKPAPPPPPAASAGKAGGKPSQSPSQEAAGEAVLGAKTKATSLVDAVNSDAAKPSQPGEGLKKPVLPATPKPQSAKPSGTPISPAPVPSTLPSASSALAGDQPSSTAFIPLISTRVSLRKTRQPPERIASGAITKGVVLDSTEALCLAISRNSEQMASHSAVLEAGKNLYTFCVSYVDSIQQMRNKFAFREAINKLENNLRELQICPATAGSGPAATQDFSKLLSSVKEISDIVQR
Ras and Rab interactor 1/Tyrosine-protein kinase ABL1, sequence (Q13671 whole entry, the tested form may be a part): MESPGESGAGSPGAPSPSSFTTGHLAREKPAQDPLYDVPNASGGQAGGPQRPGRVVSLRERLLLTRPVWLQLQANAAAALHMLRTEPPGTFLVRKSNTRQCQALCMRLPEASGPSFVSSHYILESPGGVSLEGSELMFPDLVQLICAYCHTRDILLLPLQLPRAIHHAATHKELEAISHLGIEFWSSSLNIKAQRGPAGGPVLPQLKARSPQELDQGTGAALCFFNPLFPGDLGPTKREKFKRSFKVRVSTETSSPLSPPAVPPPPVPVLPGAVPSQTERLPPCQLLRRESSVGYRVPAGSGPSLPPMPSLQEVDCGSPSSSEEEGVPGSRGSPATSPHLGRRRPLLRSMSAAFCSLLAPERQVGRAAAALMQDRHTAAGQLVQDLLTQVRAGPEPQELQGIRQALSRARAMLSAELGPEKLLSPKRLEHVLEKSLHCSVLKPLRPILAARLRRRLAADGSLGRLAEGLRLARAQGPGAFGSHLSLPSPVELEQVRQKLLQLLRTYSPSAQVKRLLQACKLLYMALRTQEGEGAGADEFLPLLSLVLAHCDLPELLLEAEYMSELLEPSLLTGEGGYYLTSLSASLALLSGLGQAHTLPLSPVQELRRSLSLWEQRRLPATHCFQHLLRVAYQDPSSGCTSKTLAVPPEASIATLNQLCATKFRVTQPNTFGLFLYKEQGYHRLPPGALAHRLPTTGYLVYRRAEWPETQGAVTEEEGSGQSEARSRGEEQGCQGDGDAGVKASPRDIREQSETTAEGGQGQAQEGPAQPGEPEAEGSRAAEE
Mitochondrial peptide methionine sulfoxide reductase, sequence (P54149 whole entry): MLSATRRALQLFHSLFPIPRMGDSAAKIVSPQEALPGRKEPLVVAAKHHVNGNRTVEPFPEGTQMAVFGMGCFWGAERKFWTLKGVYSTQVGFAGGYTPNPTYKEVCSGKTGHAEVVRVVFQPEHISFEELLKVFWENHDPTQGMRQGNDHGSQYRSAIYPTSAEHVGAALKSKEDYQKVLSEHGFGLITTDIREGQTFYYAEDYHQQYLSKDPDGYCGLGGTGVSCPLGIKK
Steroidogenic factor 1, sequence (Q13285 whole entry): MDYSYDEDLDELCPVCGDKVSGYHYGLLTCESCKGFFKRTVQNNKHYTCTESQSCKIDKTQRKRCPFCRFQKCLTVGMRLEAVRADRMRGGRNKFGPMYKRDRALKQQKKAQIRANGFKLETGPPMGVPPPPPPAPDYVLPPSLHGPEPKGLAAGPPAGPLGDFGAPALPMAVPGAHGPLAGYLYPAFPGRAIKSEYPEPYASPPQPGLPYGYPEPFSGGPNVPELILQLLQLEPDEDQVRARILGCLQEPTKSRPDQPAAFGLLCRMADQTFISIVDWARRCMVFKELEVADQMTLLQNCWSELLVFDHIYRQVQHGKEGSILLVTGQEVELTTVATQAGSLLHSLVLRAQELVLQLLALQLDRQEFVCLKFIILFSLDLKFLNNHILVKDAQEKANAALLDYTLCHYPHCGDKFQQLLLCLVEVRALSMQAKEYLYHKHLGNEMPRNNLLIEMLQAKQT
Nuclear receptor subfamily 5 group A member 2, sequence (O00482 whole entry): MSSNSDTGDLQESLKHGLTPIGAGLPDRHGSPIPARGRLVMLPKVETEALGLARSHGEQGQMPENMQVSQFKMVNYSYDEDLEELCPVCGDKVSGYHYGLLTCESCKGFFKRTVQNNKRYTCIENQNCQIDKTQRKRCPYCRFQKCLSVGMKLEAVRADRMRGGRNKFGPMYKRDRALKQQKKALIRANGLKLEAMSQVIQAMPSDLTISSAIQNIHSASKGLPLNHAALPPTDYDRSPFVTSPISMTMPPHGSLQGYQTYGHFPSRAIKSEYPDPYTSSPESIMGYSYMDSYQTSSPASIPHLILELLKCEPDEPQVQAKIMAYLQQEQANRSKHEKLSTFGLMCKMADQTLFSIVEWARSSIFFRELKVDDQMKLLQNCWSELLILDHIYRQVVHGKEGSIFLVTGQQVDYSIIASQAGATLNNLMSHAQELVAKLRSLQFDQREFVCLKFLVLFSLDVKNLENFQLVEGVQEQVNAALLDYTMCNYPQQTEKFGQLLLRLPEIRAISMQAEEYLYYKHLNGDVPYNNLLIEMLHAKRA
Hepatocyte nuclear factor 4-alpha, sequence (P41235 whole entry, the tested form may be a part): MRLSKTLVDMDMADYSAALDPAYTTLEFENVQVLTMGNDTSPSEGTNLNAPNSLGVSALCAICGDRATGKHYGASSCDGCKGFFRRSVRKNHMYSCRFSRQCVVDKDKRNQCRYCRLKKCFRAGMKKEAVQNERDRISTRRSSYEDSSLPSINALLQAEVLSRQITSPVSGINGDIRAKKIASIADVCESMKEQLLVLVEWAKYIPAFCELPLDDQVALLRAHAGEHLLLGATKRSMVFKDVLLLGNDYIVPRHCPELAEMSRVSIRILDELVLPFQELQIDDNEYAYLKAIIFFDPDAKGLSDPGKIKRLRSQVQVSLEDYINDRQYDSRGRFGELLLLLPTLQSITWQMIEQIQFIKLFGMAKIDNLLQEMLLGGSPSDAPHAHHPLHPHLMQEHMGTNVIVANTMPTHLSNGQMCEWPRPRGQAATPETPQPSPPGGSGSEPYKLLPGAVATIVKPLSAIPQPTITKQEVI
Low molecular weight phosphotyrosine protein phosphatase, sequence (P24666 whole entry): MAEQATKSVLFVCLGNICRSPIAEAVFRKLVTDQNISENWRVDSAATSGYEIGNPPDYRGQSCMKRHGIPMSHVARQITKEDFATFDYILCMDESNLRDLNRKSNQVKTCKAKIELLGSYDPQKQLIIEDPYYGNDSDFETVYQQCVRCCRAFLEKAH
ADP-ribosylation factor GTPase-activating protein 1, sequence (Q62848 whole entry): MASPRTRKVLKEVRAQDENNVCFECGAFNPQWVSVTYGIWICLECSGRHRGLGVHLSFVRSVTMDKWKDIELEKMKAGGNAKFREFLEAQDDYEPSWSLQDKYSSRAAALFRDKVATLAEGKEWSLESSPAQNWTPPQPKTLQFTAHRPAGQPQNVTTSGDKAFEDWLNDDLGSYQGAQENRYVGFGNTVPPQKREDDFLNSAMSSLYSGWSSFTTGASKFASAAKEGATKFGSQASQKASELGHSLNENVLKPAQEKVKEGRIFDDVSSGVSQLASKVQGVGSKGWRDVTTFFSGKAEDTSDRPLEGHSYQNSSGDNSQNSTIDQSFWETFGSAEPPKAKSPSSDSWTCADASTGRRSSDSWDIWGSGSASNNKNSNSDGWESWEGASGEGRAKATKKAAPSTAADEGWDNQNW

- IC50 [9]: 17.5 µM (inactive)
Structure (SMILES): CN(Cc1cnccn1)C(=O)C1CCC(=O)N(CCc2ccccc2)C1 (centres undefined)

- IC50 [9]: 17.3 µM (inactive)
Structure (SMILES): CCOC(=O)CCCCCC(=O)Nc1ccc2c(c1)C(=O)N([C@@H](C)CO)C[C@@H](C)[C@H](CN(C)C(=O)Nc1ccccc1)OCCCC[C@H](C)O2

- IC50 [10]: 15.7 µM (inactive)
Structure (SMILES): COc1ccc(NC(=O)C(c2ccc(OC)cc2)n2c(=O)c(-c3ccco3)nc3ccccc32)cc1 (centres undefined)

- IC50 [14]: 118 µM (inactive)
Structure (SMILES): O=C(O)CC1SC(N/N=C/C=C/c2ccccc2)=NC1=O (centres undefined)

- EC50 [15]: 35.5 µM (active)
- IC50 [14]: 51.7 µM (inactive)
Structure (SMILES): CC(/C=C/c1ccc2c(c1)OCO2)=N/NC(=O)c1ccncc1

The next lines start with the molecule.

Structure (SMILES): COc1ccc(NC(=O)CSc2nc(O)c3c(C)cc(C)nc3n2)cc1
- IC50 (Steroidogenic factor 1): 1.3 µM (active)
- IC50 [1]: 23.7 µM (inactive)
- IC50 [2]: 1.37 µM (active)

Structure (SMILES): O=C(Nc1ccccc1)[C@@H]1CC=C[C@@H]2CCN(Cc3ccc(Cl)c(Cl)c3)C(=O)[C@@H]21
- IC50 [3]: 0.484 µM (active)
- IC50 (Orexin receptor type 2 [4]): > 50 µM (inactive)
- IC50 [5]: > 49.7 µM (inactive)
- IC50 [6]: 4.28 µM (active)
- IC50 (CHO-K1): > 66.2 µM (inactive)
- IC50 (Orexin receptor type 2 [7]): > 88.8 µM (inactive)

Structure (SMILES): CCOc1ccc2oc(C(=O)OCC(=O)N3CCCC(C)C3)c(C)c2c1 (centres undefined)
- IC50 [8]: 69.8 µM (inactive)

Structure (SMILES): O=C(N/N=C/c1ccc(Br)s1)c1ccc([N+](=O)[O-])cc1
- EC50 [11]: 8.96 µM (active)
- IC50 [12]: 9.73 µM (active)
- EC50 [13]: 3.76 µM (active)
